According to patent publication EP0197829A1, “5H-pyrido[3',4':4,5]pyrrolo[3,2-c]pyridine derivatives, process for their preparation and their antitunour activity” (SANOFI, priority 1985, dated 1986):

How the values were obtained:
mélanome B 16 = assay: B 16 melanoma test in vivo; design: species or system souris hybrides BDF1; Jour médian de survie: unit not given here; conditions: for Survivants: at day J 60
Excerpt: L'activité antitumorale a été testée in vivo sur différentes tumeurs selon le protocole général suivant : Toutes les souris mâles ou femelles sont inoculées par voie intrapéritonéale au jour Jo avec une quantité déterminée de cellules tumorales viables, variable selon la tumeur.
Elles sont ensuite réparties en différents lots. Chaque lot correspondant aux animaux traités par le produit à tester à une dose déterminée est composé de lO souris. Dans ce cas, le produit à tester est dissous dans l'eau distillée et il est administré, pendant n jours (J1-Jn) variables selon le protocole choisi, par voie intrapéritonéale à raison de 0,1 ml par lO g de poids des souris traitées, les doses du produit administré étant précisées dans les tableaux ci-dessous.
Le lot "Contrôle négatif", correspondant aux animaux qui ne sont pas traités par un produit, comprend 2 √N animaux, N étant égal au nombre total de souris traitées par un produit.
Enfin, tous lés essais sont conduits parallèlement à l'étude d'un lot appelé "Contrôle positif" de 10 animaux qui est traité par une molécule active, variable selon le protocole choisi, dans les mêmes conditions que les lots traités par le produit à tester, afin de valider l'essai.
L'activité antitumorale est évaluée en considérant l'augmentation du temps de survie des animaux traités par rapport à celui des animaux du lot "Contrôle négatif" selon la formule : • Jour médian de survie des animaux traités à une T/C = dose donnée de produit x 100 • Jour médian de survie des animaux "Contrôle négatif"
Un composé est considéré comme étant actif lorsque la valeur du rapport T/C est égale ou supérieure à 125 % selon le protocole retenu. Il est toxique lorsque cette valeur est égale ou inférieure à 85 %. Le produit est également considéré comme toxique lorsque la variation pondérale, exprimée en grammes et calculée par la formule : Poids moyen du lot mesuré au jour 5 - poids moyen du même lot au jour 1, est égale ou inférieure à -4g . a) Test de la leucémie P 388 (GERAN et al., Cancer Chemother, 1972, 2, 07-57).
c) Test du mélanome B 16 (GERAN et al., Cancer Chemother, 1972, 2, 07-57).
Les essais sont effectués avec des souris hybrides BDF1 inoculées avec O,5 ml d'un homogénat de mélanome B 16 réalisé à partir de 1 g de tumeur dans 10 ml de sérum physiologique. Le composé à tester est administré pendant 9 jours (J1-J9). Le contrôle positif du test est le Cis- platine administré dans les mêmes conditions. Le nombre d'animaux survivants est évalué au jour J 60. Un composé est considéré comme étant actif lorsque le rapport T/C est supérieur ou égal à 125 %.

[1] = test system: lignée tumorale leucémie L 1210; assay: In vitro cytotoxicity on L 1210 leukemia cell culture; format: cell-based; conditions: Mus musculus, L1210; concentration inhibiting cell proliferation by 50 p. 100, after 48 h contact; read-out: ID 50 (the source's name)
Procedure: 1) In vitro : (PAOLETTI et al., Chem. Biol. Interaction, 1979, 25, 45-58).
L'activité cytotoxique des composés de l'invention a été évaluée par des essais in vitro. Ces essais consistent à ajouter des concentrations croissantes du composé à tester à une culture cellulaire de la lignée tumorale leucémie L 1210 en phase exponentielle de croissance. Les cellules sont incubées à 37°C dans une étuve à C02 et comptées toutes les 24 heures. Le calcul de l'ID 50 (concentration du produit exprimée en micromole 1^-1 qui inhibe la prolifération cellulaire à 50 p. 100) est effectué après 48 heures de contact. Ainsi déterminées, les ID 50 des composés de l'invention sont rassemblées dans le tableau I ci-après : […]

in vivo = assay: in vivo; design: species or system souris; conditions: mouse, ip, 100 mg/kg
Procedure: Ainsi, l'administration à des souris hybrides CDF1 saines, en une injection unique par la voie intrapéritonéale, de doses croissantes des composés à tester (5 mg, 10 mg, 20 mg, 40 mg/kg) a permis de constater que, à ces doses, les produits étaient parfaitement tolérés puisque le taux de survivants était de 100 p. 100.
Dans les mêmes conditions, administrés à des souris BDF1 saines, les taux de survivants étaient de 100 p. 100 jusqu'à 100 mg/kg pour les dérivés 1, 3 et 9 et jusqu'à 200 mg/kg pour les dérivés 2 et 8.

Which results are given for CCN(CC)CCCNc1ncc(C)c2c1c1cnccc1n2C [Dérivé N° 4, [(diéthylamino-3 propyl-1)amino]-1 diméthyl-4,5 5-H pyrido[3',4':4,5]pyrrolo[3,2-c]pyridine]?
Jour médian de survie (mélanome B 16; 20 mg/kg i.p. J1-J9): 28; T/C % (mélanome B 16; 20 mg/kg i.p. J1-J9): 99%; Survivants (mélanome B 16; 20 mg/kg i.p. J1-J9): 0; Jour médian de survie (mélanome B 16; 30 mg/kg i.p. J1-J9): 43,0; T/C % (mélanome B 16; 30 mg/kg i.p. J1-J9): 152%; Survivants (mélanome B 16; 30 mg/kg i.p. J1-J9): 4; Jour médian de survie (mélanome B 16; 40 mg/kg i.p. J1-J9): 53,0; T/C % (mélanome B 16; 40 mg/kg i.p. J1-J9): 188%; Survivants (mélanome B 16; 40 mg/kg i.p. J1-J9): 5; Jour médian de survie (mélanome B 16; 50 mg/kg i.p. J1-J9): 39,0; T/C % (mélanome B 16; 50 mg/kg i.p. J1-J9): 138%; Survivants (mélanome B 16; 50 mg/kg i.p. J1-J9): 0; Jour médian de survie (mélanome B 16; 60 mg/kg i.p. J1-J9): 24,0; T/C % (mélanome B 16; 60 mg/kg i.p. J1-J9): 85%; Survivants (mélanome B 16; 60 mg/kg i.p. J1-J9): 0; IC50 [1]: 130 nM

Which results are given for Cc1cnc(NCCCN(C)C)c2c1[nH]c1ccncc12 [Dérivé N° 3, [(diméthylamino-3 propyl-1)amino]-1 méthyl-4 5-H pyrido[3',4':4,5]pyrrolo[3,2-c]pyridine]?
Jour médian de survie (mélanome B 16; 5 mg/kg i.p. J1-J9): 29; T/C % (mélanome B 16; 5 mg/kg i.p. J1-J9): 125%; Survivants (mélanome B 16; 5 mg/kg i.p. J1-J9): 0; Jour médian de survie (mélanome B 16; 20 mg/kg i.p. J1-J9): 29,3; T/C % (mélanome B 16; 20 mg/kg i.p. J1-J9): 126%; Survivants (mélanome B 16; 20 mg/kg i.p. J1-J9): 0; Jour médian de survie (mélanome B 16; 40 mg/kg i.p. J1-J9): 9,8; T/C % (mélanome B 16; 40 mg/kg i.p. J1-J9): 42%; Survivants (mélanome B 16; 40 mg/kg i.p. J1-J9): 0; survival (in vivo): 100%
